Compound in this assay: CN(NC(=O)CC(=O)NN(C)C(=S)c1ccccc1)C(=S)c1ccccc1 [Elesclomol] + O=C(CCCCCCC(=O)Nc1ccccc1)NO [Vorinostat] (partner 1 µM)
The experiment in a line: relative viability (nuclei count vs DMSO), 5 days (fraction); higher = more cells survive. Put shortly:
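For relative viability, nuclei counts in treated wells were divided by those in vehicle wells. Lung cancer cell lines had been pin-tool dosed in 1536-well plates the day after seeding and cultured for 5 days, then fixed and stained in one step (final 0.05% Triton X-100, 1% formaldehyde, 1 ug/ml Hoechst) and imaged at 4×. Doses were one drug alone or a fixed anchor-drug dose plus five library-drug doses (not always all listed) in √10 steps, and values are duplicate-plate medians.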

Consider NCI-H650, for which the relative viability was found to be 0.539 (first compound 0.003162 µM), 0.38 (first compound 0.01 µM), 0.184 (first compound 0.03162 µM) and 0.132 (first compound 0.1 µM).

With NCI-H661, the relative viability runs as follows: (first compound 0.003162 µM) 0.768; (first compound 0.01 µM) 0.565; (first compound 0.03162 µM) 0.304; (first compound 0.1 µM) 0.26.

For NCI-H727, the relative viability turned out to be 1.14 (first compound 0.003162 µM), 1.18 (first compound 0.01 µM), 1.03 (first compound 0.03162 µM) and 0.641 (first compound 0.1 µM).

Consider NCI-H838, for which the relative viability by setting is: (first compound 0.003162 µM) 0.723; (first compound 0.01 µM) 0.706; (first compound 0.03162 µM) 0.609; (first compound 0.1 µM) 0.303.

For the cell line NCI-H1355, the relative viability runs as follows: (first compound 0.003162 µM) 0.617; (first compound 0.01 µM) 0.524; (first compound 0.03162 µM) 0.418; (first compound 0.1 µM) 0.213.

With NCI-H1395, the relative viability runs as follows: (first compound 0.003162 µM) 0.814; (first compound 0.01 µM) 0.46; (first compound 0.03162 µM) 0.245; (first compound 0.1 µM) 0.215.

As for NCI-H1437, the relative viability is, setting by setting: (first compound 0.003162 µM) 0.74; (first compound 0.01 µM) 0.411; (first compound 0.03162 µM) 0.322; (first compound 0.1 µM) 0.334.

Regarding NCI-H1650, the relative viability runs as follows: (first compound 0.003162 µM) 0.3; (first compound 0.01 µM) 0.22; (first compound 0.03162 µM) 0.146; (first compound 0.1 µM) 0.11.

On to NCI-H1651, for which the relative viability runs as follows: (first compound 0.003162 µM) 0.557; (first compound 0.01 µM) 0.527; (first compound 0.03162 µM) 0.519; (first compound 0.1 µM) 0.434.

Regarding NCI-H1666, the relative viability worked out at 1.05 (first compound 0.003162 µM), 0.91 (first compound 0.01 µM), 0.836 (first compound 0.03162 µM) and 0.714 (first compound 0.1 µM).

For the cell line NCI-H1734, the relative viability by setting is: (first compound 0.003162 µM) 0.859; (first compound 0.01 µM) 0.592; (first compound 0.03162 µM) 0.207; (first compound 0.1 µM) 0.101.

Regarding NCI-H1755, the relative viability is, setting by setting: (first compound 0.003162 µM) 0.742; (first compound 0.01 µM) 0.637; (first compound 0.03162 µM) 0.787; (first compound 0.1 µM) 0.364.

Regarding NCI-H1793, the relative viability is, setting by setting: (first compound 0.003162 µM) 0.808; (first compound 0.01 µM) 0.623; (first compound 0.03162 µM) 0.613; (first compound 0.1 µM) 0.117.

NCI-H1915: the relative viability worked out at 0.517 (first compound 0.003162 µM), 0.324 (first compound 0.01 µM), 0.573 (first compound 0.03162 µM) and 0.205 (first compound 0.1 µM).

For the cell line NCI-H1944, the relative viability runs as follows: (first compound 0.003162 µM) 0.652; (first compound 0.01 µM) 0.578; (first compound 0.03162 µM) 0.459; (first compound 0.1 µM) 0.166.

For NCI-H1975, the relative viability (first compound 0.003162 µM) worked out at 0.765, the relative viability (first compound 0.01 µM) turned out to be 0.648, the relative viability (first compound 0.03162 µM) is 0.183 and the relative viability (first compound 0.1 µM) came out at 0.12.

Turning to NCI-H1993, the relative viability amounted to 0.897 (first compound 0.003162 µM), 0.817 (first compound 0.01 µM), 0.469 (first compound 0.03162 µM) and 0.288 (first compound 0.1 µM).

Take NCI-H2009: the relative viability reads like this: (first compound 0.003162 µM) 0.679; (first compound 0.01 µM) 0.279; (first compound 0.03162 µM) 0.162; (first compound 0.1 µM) 0.0886.

Turning to NCI-H2023, the relative viability is, setting by setting: (first compound 0.003162 µM) 0.418; (first compound 0.01 µM) 0.0842; (first compound 0.03162 µM) 0.0465; (first compound 0.1 µM) 0.0461.

For NCI-H2085, the relative viability came out at 0.835 (first compound 0.003162 µM), 0.783 (first compound 0.01 µM), 0.451 (first compound 0.03162 µM) and 0.308 (first compound 0.1 µM).

In the case of NCI-H2087, the relative viability by setting is: (first compound 0.003162 µM) 0.528; (first compound 0.01 µM) 0.448; (first compound 0.03162 µM) 0.431; (first compound 0.1 µM) 0.313.

For NCI-H2126, the relative viability is, setting by setting: (first compound 0.003162 µM) 0.852; (first compound 0.01 µM) 0.642; (first compound 0.03162 µM) 0.745; (first compound 0.1 µM) 0.577.

For NCI-H2170, the relative viability (first compound 0.003162 µM) amounted to 0.808, the relative viability (first compound 0.01 µM) stood at 0.683, the relative viability (first compound 0.03162 µM) was 0.777 and the relative viability (first compound 0.1 µM) was 0.408.

NCI-H2228: the relative viability turned out to be 0.628 (first compound 0.003162 µM), 0.177 (first compound 0.01 µM), 0.125 (first compound 0.03162 µM) and 0.0717 (first compound 0.1 µM).

For the cell line NCI-H2347, the relative viability by setting is: (first compound 0.003162 µM) 0.572; (first compound 0.01 µM) 0.527; (first compound 0.03162 µM) 0.471; (first compound 0.1 µM) 0.303.

Consider NCI-H2405, for which the relative viability is, setting by setting: (first compound 0.003162 µM) 0.933; (first compound 0.01 µM) 0.415; (first compound 0.03162 µM) 0.314; (first compound 0.1 µM) 0.276.

As to NCI-H3122, the relative viability reads like this: (first compound 0.003162 µM) 0.652; (first compound 0.01 µM) 1.02; (first compound 0.03162 µM) 0.881; (first compound 0.1 µM) 0.111.

For the cell line PC-3 [JPC-3], the relative viability runs as follows: (first compound 0.003162 µM) 0.779; (first compound 0.01 µM) 0.489; (first compound 0.03162 µM) 0.466; (first compound 0.1 µM) 0.372.

For the cell line PC-14, the relative viability is, setting by setting: (first compound 0.003162 µM) 0.0807; (first compound 0.01 µM) 0.0343; (first compound 0.03162 µM) 0.0162; (first compound 0.1 µM) 0.0149.

Regarding RERF-LC-KJ, the relative viability was 0.445 (first compound 0.003162 µM), 0.406 (first compound 0.01 µM), 0.473 (first compound 0.03162 µM) and 0.256 (first compound 0.1 µM).

Regarding SK-LU-1, the relative viability amounted to 0.83 (first compound 0.003162 µM), 0.659 (first compound 0.01 µM), 0.471 (first compound 0.03162 µM) and 0.336 (first compound 0.1 µM).

On to SK-MES-1, for which the relative viability (first compound 0.003162 µM) amounted to 1.13, the relative viability (first compound 0.01 µM) came out at 0.481, the relative viability (first compound 0.03162 µM) worked out at 0.425 and the relative viability (first compound 0.1 µM) came to 0.284.

As for SW 900, the relative viability runs as follows: (first compound 0.003162 µM) 0.522; (first compound 0.01 µM) 0.345; (first compound 0.03162 µM) 0.234; (first compound 0.1 µM) 0.111.

As to SW 1573, the relative viability runs as follows: (first compound 0.003162 µM) 0.331; (first compound 0.01 µM) 0.107; (first compound 0.03162 µM) 0.112; (first compound 0.1 µM) 0.0259.

For the cell line UMC-11, the relative viability was 0.391 (first compound 0.003162 µM), 0.333 (first compound 0.01 µM), 0.411 (first compound 0.03162 µM) and 0.255 (first compound 0.1 µM).
